Source: the supplement of paper PMC10307832

How the values were obtained:
Test in all cases: relative viability (nuclei count vs DMSO), 5 days (fraction); higher = more cells survive
LOU-NH91 = system: LOU-NH91
Method in brief: (§1)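 Lung cancer cell lines in 1536-well plates were dosed by pin tool the day after seeding, either with one drug alone or with a fixed anchor-drug dose plus five library-drug doses (not always all listed) in √10 steps. After 5 days, cells were fixed and their nuclei stained in one step (final 0.05% Triton X-100, 1% formaldehyde, 1 ug/ml Hoechst), then counted on 4× images. Relative viability is the nuclei count in treated wells divided by that in vehicle wells. Values are medians of duplicate plates.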

SK-MES-1 = system: SK-MES-1
Method in brief: as §1

NCI-H596 = system: NCI-H596
Method in brief: as §1

NCI-H2170 = system: NCI-H2170
Method in brief: as §1

NCI-H441 = system: NCI-H441
Method in brief: as §1

COR-L 105 = system: COR-L 105
Method in brief: as §1

NCI-H1975 = system: NCI-H1975
Method in brief: as §1

NCI-H1734 = system: NCI-H1734
Method in brief: as §1

SW 900 = system: SW 900
Method in brief: as §1

H3255 = system: H3255
Method in brief: as §1

NCI-H520 = system: NCI-H520
Method in brief: as §1

LK-2 = system: LK-2
Method in brief: as §1

A-427 = system: A-427
Method in brief: as §1

EKVX = system: EKVX
Method in brief: as §1

PC-3 [JPC-3] = system: PC-3 [JPC-3]
Method in brief: as §1

NCI-H1755 = system: NCI-H1755
Method in brief: as §1

NCI-H23 = system: NCI-H23
Method in brief: as §1

ChaGo-K-1 = system: ChaGo-K-1
Method in brief: as §1

EMC-BAC-2 = system: EMC-BAC-2
Method in brief: as §1

HCC-366 = system: HCC-366
Method in brief: as §1

NCI-H1666 = system: NCI-H1666
Method in brief: as §1

NCI-H1563 = system: NCI-H1563
Method in brief: as §1

`Cc1sc2c(c1C)C(c1ccc(Cl)cc1)=N[C@@H](CC(=O)OC(C)(C)C)c1nnc(C)n1-2` [JQ1] + COc1cccc2cc(-c3nc([C@H]4CC[C@H](C(=O)O)CC4)n4ncnc(N)c34)[nH]c12 [OSI-027] (partner 0.5 µM) showed a relative viability (LOU-NH91; first compound 0.04 µM) of 0.721, a relative viability (LOU-NH91; first compound 0.1265 µM) of 0.674 and a relative viability (LOU-NH91; first compound 0.4 µM) of 0.564. For the same compound, the relative viability (LOU-NH91; first compound 1.265 µM) was 0.537, the relative viability (LOU-NH91; first compound 4 µM) was 0.431 and the relative viability (SK-MES-1; first compound 0.04 µM) was 0.614. The relative viability (SK-MES-1; first compound 0.1265 µM) was 0.497, the relative viability (SK-MES-1; first compound 0.4 µM) was 0.379 and the relative viability (SK-MES-1; first compound 1.265 µM) was 0.157. The relative viability (SK-MES-1; first compound 4 µM) was 0.158, the relative viability (NCI-H596; first compound 0.04 µM) was 0.809 and the relative viability (NCI-H596; first compound 0.1265 µM) was 0.892. It also gave a relative viability (NCI-H596; first compound 0.4 µM) of 0.539, a relative viability (NCI-H596; first compound 1.265 µM) of 0.334 and a relative viability (NCI-H596; first compound 4 µM) of 0.283. For the same compound, the relative viability (NCI-H2170; first compound 0.04 µM) was 0.683, the relative viability (NCI-H2170; first compound 0.1265 µM) was 0.623 and the relative viability (NCI-H2170; first compound 0.4 µM) was 0.688. It also gave a relative viability (NCI-H2170; first compound 1.265 µM) of 0.422, a relative viability (NCI-H2170; first compound 4 µM) of 0.362 and a relative viability (NCI-H441; first compound 0.04 µM) of 0.718. For the same compound, the relative viability (NCI-H441; first compound 0.1265 µM) was 0.583, the relative viability (NCI-H441; first compound 0.4 µM) was 0.705 and the relative viability (NCI-H441; first compound 1.265 µM) was 0.392. For the same compound, the relative viability (NCI-H441; first compound 4 µM) was 0.334, the relative viability (COR-L 105; first compound 0.04 µM) was 0.608 and the relative viability (COR-L 105; first compound 0.1265 µM) was 0.336. For the same compound, the relative viability (COR-L 105; first compound 0.4 µM) was 0.297, the relative viability (COR-L 105; first compound 1.265 µM) was 0.207 and the relative viability (COR-L 105; first compound 4 µM) was 0.248. For the same compound, the relative viability (NCI-H1975; first compound 0.04 µM) was 0.708, the relative viability (NCI-H1975; first compound 0.1265 µM) was 0.527 and the relative viability (NCI-H1975; first compound 0.4 µM) was 0.62. It also gave a relative viability (NCI-H1975; first compound 1.265 µM) of 0.437, a relative viability (NCI-H1975; first compound 4 µM) of 0.393 and a relative viability (NCI-H1734; first compound 0.04 µM) of 0.619. It also gave a relative viability (NCI-H1734; first compound 0.1265 µM) of 0.508, a relative viability (NCI-H1734; first compound 0.4 µM) of 0.601 and a relative viability (NCI-H1734; first compound 1.265 µM) of 0.354. The relative viability (NCI-H1734; first compound 4 µM) was 0.413, the relative viability (SW 900; first compound 0.04 µM) was 0.572 and the relative viability (SW 900; first compound 0.1265 µM) was 0.627. The relative viability (SW 900; first compound 0.4 µM) was 0.352, the relative viability (SW 900; first compound 1.265 µM) was 0.165 and the relative viability (SW 900; first compound 4 µM) was 0.166. For the same compound, the relative viability (H3255; first compound 0.04 µM) was 0.532, the relative viability (H3255; first compound 0.1265 µM) was 0.672 and the relative viability (H3255; first compound 0.4 µM) was 0.629. It also gave a relative viability (H3255; first compound 1.265 µM) of 0.438, a relative viability (H3255; first compound 4 µM) of 0.444 and a relative viability (NCI-H520; first compound 0.04 µM) of 0.211. The relative viability (NCI-H520; first compound 0.1265 µM) was 0.325, the relative viability (NCI-H520; first compound 0.4 µM) was 0.201 and the relative viability (NCI-H520; first compound 1.265 µM) was 0.217. The relative viability (NCI-H520; first compound 4 µM) was 0.208, the relative viability (LK-2; first compound 0.04 µM) was 0.204 and the relative viability (LK-2; first compound 0.1265 µM) was 0.21. The relative viability (LK-2; first compound 0.4 µM) was 0.188, the relative viability (LK-2; first compound 1.265 µM) was 0.122 and the relative viability (LK-2; first compound 4 µM) was 0.143. It also gave a relative viability (A-427; first compound 0.04 µM) of 0.468, a relative viability (A-427; first compound 0.1265 µM) of 0.45 and a relative viability (A-427; first compound 0.4 µM) of 0.458. For the same compound, the relative viability (A-427; first compound 1.265 µM) was 0.3, the relative viability (A-427; first compound 4 µM) was 0.293 and the relative viability (EKVX; first compound 0.04 µM) was 0.698. For the same compound, the relative viability (EKVX; first compound 0.1265 µM) was 0.587, the relative viability (EKVX; first compound 0.4 µM) was 0.722 and the relative viability (EKVX; first compound 1.265 µM) was 0.571. It also gave a relative viability (EKVX; first compound 4 µM) of 0.488, a relative viability (PC-3 [JPC-3]; first compound 0.04 µM) of 0.771 and a relative viability (PC-3 [JPC-3]; first compound 0.1265 µM) of 0.823. For the same compound, the relative viability (PC-3 [JPC-3]; first compound 0.4 µM) was 0.739, the relative viability (PC-3 [JPC-3]; first compound 1.265 µM) was 0.653 and the relative viability (PC-3 [JPC-3]; first compound 4 µM) was 0.445. The relative viability (NCI-H1755; first compound 0.04 µM) was 0.758, the relative viability (NCI-H1755; first compound 0.1265 µM) was 0.68 and the relative viability (NCI-H1755; first compound 0.4 µM) was 0.668. It also gave a relative viability (NCI-H1755; first compound 1.265 µM) of 0.527, a relative viability (NCI-H1755; first compound 4 µM) of 0.39 and a relative viability (NCI-H23; first compound 0.04 µM) of 0.586. The relative viability (NCI-H23; first compound 0.1265 µM) was 0.583, the relative viability (NCI-H23; first compound 0.4 µM) was 0.394 and the relative viability (NCI-H23; first compound 1.265 µM) was 0.198. It also gave a relative viability (NCI-H23; first compound 4 µM) of 0.204, a relative viability (ChaGo-K-1; first compound 0.04 µM) of 0.564 and a relative viability (ChaGo-K-1; first compound 0.1265 µM) of 0.519. It also gave a relative viability (ChaGo-K-1; first compound 0.4 µM) of 0.472, a relative viability (ChaGo-K-1; first compound 1.265 µM) of 0.345 and a relative viability (ChaGo-K-1; first compound 4 µM) of 0.28. The relative viability (EMC-BAC-2; first compound 0.04 µM) was 0.405, the relative viability (EMC-BAC-2; first compound 0.1265 µM) was 0.286 and the relative viability (EMC-BAC-2; first compound 0.4 µM) was 0.301. It also gave a relative viability (EMC-BAC-2; first compound 1.265 µM) of 0.189, a relative viability (EMC-BAC-2; first compound 4 µM) of 0.224 and a relative viability (HCC-366; first compound 0.04 µM) of 0.958. The relative viability (HCC-366; first compound 0.4 µM) was 0.783, the relative viability (HCC-366; first compound 1.265 µM) was 0.336 and the relative viability (HCC-366; first compound 4 µM) was 0.31. It also gave a relative viability (NCI-H1666; first compound 0.04 µM) of 0.761, a relative viability (NCI-H1666; first compound 0.1265 µM) of 0.901 and a relative viability (NCI-H1666; first compound 0.4 µM) of 0.726. The relative viability (NCI-H1666; first compound 1.265 µM) was 0.581, the relative viability (NCI-H1666; first compound 4 µM) was 0.789 and the relative viability (NCI-H1563; first compound 0.04 µM) was 0.735. For the same compound, the relative viability (NCI-H1563; first compound 0.1265 µM) was 0.704, the relative viability (NCI-H1563; first compound 0.4 µM) was 0.605 and the relative viability (NCI-H1563; first compound 1.265 µM) was 0.552. The relative viability (NCI-H1563; first compound 4 µM) was 0.545.
